From US9890146B2, “Compound having selective EP2 agonist activity” (ONO PHARMACEUTICAL CO., LTD., priority 2014, dated 2018)

The compounds below were run against T1, human EP2 (Homo sapiens, UniProt P43116) (assay: Measurement of EP2 agonist activity (measurement of cAMP concentration)). Conditions: EP2-CHO cells, cAMP production (HTRF), reaction 30 minutes at room temperature; read-out: EP2 agonist activity EC50.
T1 construct: expressed in transfected cells; host or cells: CHO cells (EP2-CHO)
Type: cell-based
Method: Using Chem1 cells or CHO cells in which various prostanoid receptors were forcibly expressed, respectively, agonist activities of test compounds on various prostanoid receptors was determined employing, as a measure, an intracellular cyclic AMP (hereinbelow, abbreviated as “cAMP”) production amount or an intracellular calcium concentration.
The test compound and a control substance (PGE2 and PGF2α) were dissolved in dimethyl sulfoxide (DMSO) to prepare a 10 mmol/L solution. The 10 mmol/L solution thus prepared was thawed upon use, then serially diluted with DMSO, and then diluted with a buffer solution for measurement use or a buffer solution for measurement use 2, and then the resulting solution was subjected to an experiment.
Cells forcibly expressing various prostanoid receptors were standing-cultured at 37° C. in the presence of 5% CO2 using a DMEM medium (Sigma) (for culturing FP-Chem1) containing inactivated (56° C., 30 minutes) 9.8 vol % nondialysed-FBS (Life Technologies), 1 vol % Non Essential Amino Acids (Life Technologies), 10 mmol/L HEPES Buffer Solution (Life Technologies), 0.5 vol % GENETICIN (Life Technologies) and 1% penicillin-streptomycin (Life Technologies) or an α-MEM medium (Sigma) (for culturing EP2-CHO) containing inactivated (56° C., 30 minutes) 9.8 vol % dialysed-FBS (Life Technologies) and penicillin-streptomycin-glutamine (Life Technologies). Subculturing was carried out by the following manner.
The medium was removed, and washed with a phosphate-buffered physiological saline not containing Ca^2+ and Mg^2+ one time. A proper amount of trypsin-EDTA (Life Technologies) was added, and this was incubated at room temperature, cells were peeled, and a medium having a volume which is 10-fold a volume of trypsin-EDTA was added to stop an enzymatic reaction. After cells were recovered into a centrifuging tube, and centrifuged at room temperature for 3 minutes at 120 g, the supernatant was removed. Cells were suspended in a proper amount of a medium, and seeded in a culturing flask.
On the measurement day, a medium was removed, and EP2-CHO was washed with a phosphate-buffered physiological saline containing 2 mmol/L EDTA and not containing Ca^2+ and Mg^2+ one time. A proper amount of the phosphate-buffered physiological saline containing 2 mmol/L EDTA and not containing Ca^2+ and Mg^2+ was added, this was incubated at 37° C. in the presence of 5% CO2, cells were peeled, cells were recovered into a centrifuging tube, and centrifuged at room temperature for 3 minutes at 550 g, and the supernatant was removed. Cells were suspended in a proper amount of a buffer solution for measurement 1 (MEM medium (Invitrogen) containing 1.0 w/v % bovine serum albumin (Sigma) and 2 μmol/L diclofenac (Sigma)), and centrifuged at room temperature for 3 minutes at 200 g, and the supernatant was removed. Cells were suspended in a buffer solution for measurement 2 (MEM medium (Invitrogen) containing 1.0 w/v % bovine serum albumin (Sigma), 2 μmol/L diclofenac (Sigma) and 1 mmol/L 3-isobutyl-1-methylxanthine), and each 25 μL of the suspension was dispensed into a 96-well ½ area plate so that the cell number per well became […]. A buffer solution for measurement 2 (25 μL) containing an agonist at a variety of concentrations was added to carry out a reaction at room temperature for 30 minutes. Measurement of a cAMP concentration was carried out using the cAMP HTRF HiRange kit (CIS bio International). According to the two step protocol of the kit manual, each 25 μL of cAMP-D2 and Cryptase diluted with a lysis buffer were added, and this was incubated at room temperature for 1 hour. After incubation for 1 hour, time resolution fluorescence at 620 nm and 660 nm when excited at 340 nm was measured using SpectraMax M5e (Molecular Device), and a ratio (TRF ratio) was obtained, thereby, a cAMP concentration was calculated from a calibration line. […]

T1 sequence (P43116 whole entry): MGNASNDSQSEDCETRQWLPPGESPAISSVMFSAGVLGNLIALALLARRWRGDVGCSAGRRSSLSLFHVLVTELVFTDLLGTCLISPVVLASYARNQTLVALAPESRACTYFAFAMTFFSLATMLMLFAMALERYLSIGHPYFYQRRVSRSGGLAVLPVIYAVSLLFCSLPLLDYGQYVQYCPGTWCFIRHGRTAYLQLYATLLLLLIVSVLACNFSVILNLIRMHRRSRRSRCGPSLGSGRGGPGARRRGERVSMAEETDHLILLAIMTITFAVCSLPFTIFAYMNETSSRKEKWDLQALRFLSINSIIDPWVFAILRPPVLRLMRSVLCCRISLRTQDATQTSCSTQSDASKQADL

Row | Structure (SMILES) | EC50 [nM]
1 | Cc1cc(OC[C@@H]2[C@H]3CC[C@H](c4nc(C(=O)O)cs4)O[C@H]3C[C@H]2O)ccc1[N+](=O)[O-] [1(4), 2-{(2R,4aR,5S,6R,7aS)-6-hydroxy-5-[(3-methyl-4-nitrophenoxy)methyl]octahydrocyclopenta[b]pyran-2-yl}-1,3-thiazole-4-carboxylic acid] | 0.5
2 | Cc1cc(OC[C@@H]2[C@H]3CC[C@H](c4nc(C(=O)O)cs4)O[C@H]3C[C@H]2O)ccc1Cl [1(5), 2-{(2R,4aR,5S,6R,7aS)-5-[(4-chloro-3-methylphenoxy)methyl]-6-hydroxyoctahydrocyclopenta[b]pyran-2-yl}-1,3-thiazole-4-carboxylic acid] | 0.9
3 | O=C(O)c1csc([C@H]2CC[C@@H]3[C@@H](COc4ccc5c(c4)CCC5)[C@H](O)C[C@@H]3O2)n1 [1(6), 2-{(2R,4aR,5S,6R,7aS)-5-[(2,3-dihydro-1H-inden-5-yloxy)methyl]-6-hydroxyoctahydrocyclopenta[b]pyran-2-yl}-1,3-thiazole-4-carboxylic acid] | 7.5
4 | Cc1ccc(OC[C@@H]2[C@H]3CC[C@H](c4nc(C(=O)O)cs4)O[C@H]3C[C@H]2O)cc1C [1(7), 2-{(2R,4aR,5S,6R,7aS)-5-[(3,4-dimethylphenoxy)methyl]-6-hydroxyoctahydrocyclopenta[b]pyran-2-yl}-1,3-thiazole-4-carboxylic acid] | 3.3
5 | O=C(O)c1csc([C@H]2CC[C@@H]3[C@@H](COc4ccc5[nH]ccc5c4)[C@H](O)C[C@@H]3O2)n1 [1(12), 2-{(2R,4aR,5S,6R,7aS)-6-hydroxy-5-[(1H-indol-5-yloxy)methyl]octahydrocyclopenta[b]pyran-2-yl}-1,3-thiazole-4-carboxylic acid] | 19
6 | O=C(O)c1csc([C@H]2CC[C@@H]3[C@@H](COc4cccc5c4CCC5)[C@H](O)C[C@@H]3O2)n1 [1(13), 2-{(2R,4aR,5S,6R,7aS)-5-[(2,3-dihydro-1H-inden-4-yloxy)methyl]-6-hydroxyoctahydrocyclopenta[b]pyran-2-yl}-1,3-thiazole-4-carboxylic acid] | 1.1
7 | O=C(O)c1csc([C@H]2CC[C@@H]3[C@@H](COc4ccc5c(c4)CC5)[C@H](O)C[C@@H]3O2)n1 [1(15), 2-{(2R,4aR,5S,6R,7aS)-5-[(bicyclo[4.2.0]octa-1,3,5-trien-3-yloxy)methyl]-6-hydroxyoctahydrocyclopenta[b]pyran-2-yl}-1,3-thiazole-4-carboxylic acid] | 14
8 | O=C(O)c1csc([C@H]2CC[C@@H]3[C@@H](COc4ccc5ccoc5c4)[C@H](O)C[C@@H]3O2)n1 [1(16), 2-{(2R,4aR,5S,6R,7aS)-5-[(1-benzofuran-6-yloxy)methyl]-6-hydroxyoctahydrocyclopenta[b]pyran-2-yl}-1,3-thiazole-4-carboxylic acid] | 5.5
9 | CCc1cc(OC[C@@H]2[C@H]3CC[C@H](c4nc(C(=O)O)cs4)O[C@H]3C[C@H]2O)ccc1C [1(17), 2-{(2R,4aR,5S,6R,7aS)-5-[(3-ethyl-4-methylphenoxy)methyl]-6-hydroxyoctahydrocyclopenta[b]pyran-2-yl}-1,3-thiazole-4-carboxylic acid] | 0.82
10 | O=C(O)c1csc([C@H]2CC[C@@H]3[C@@H](COc4ccc5c(c4F)CCC5)[C@H](O)C[C@@H]3O2)n1 [1(19), 2-[(2R,4aR,5S,6R,7aS)-5-{[(4-fluoro-2,3-dihydro-1H-inden-5-yl)oxy]methyl}-6-hydroxyoctahydrocyclopenta[b]pyran-2-yl]-1,3-thiazole-4-carboxylic acid] | 2.4
11 | O=C(O)c1csc([C@H]2CC[C@@H]3[C@@H](COc4ccc(Cl)c(C5CC5)c4)[C@H](O)C[C@@H]3O2)n1 [1(22), 2-{(2R,4aR,5S,6R,7aS)-5-[(4-chloro-3-cyclopropylphenoxy)methyl]-6-hydroxyoctahydrocyclopenta[b]pyran-2-yl}-1,3-thiazole-4-carboxylic acid] | 2.3
12 | O=C(O)c1csc([C@H]2CC[C@@H]3[C@@H](COc4ccccc4)[C@H](O)C[C@@H]3O2)n1 [1(27), 2-[(2R,4aR,5S,6R,7aS)-6-hydroxy-5-(phenoxymethyl)octahydrocyclopenta[b]pyran-2-yl]-1,3-thiazole-4-carboxylic acid] | 12
13 | O=C(O)c1csc([C@H]2CC[C@@H]3[C@@H](COc4ccc5c(c4)CCC5)[C@@H](O)C[C@@H]3O2)n1 [9(1), 2-{(2R,4aR,5S,6S,7aS)-5-[(2,3-dihydro-1H-inden-5-yloxy)methyl]-6-hydroxyoctahydrocyclopenta[b]pyran-2-yl}-1,3-thiazole-4-carboxylic acid] | 0.86
14 | Cc1ccc(OC[C@@H]2[C@H]3CC[C@H](c4nc(C(=O)O)cs4)O[C@H]3C[C@@H]2O)cc1Cl [9(3), 2-{(2R,4aR,5S,6S,7aS)-5-[(3-chloro-4-methylphenoxy)methyl]-6-hydroxyoctahydrocyclopenta[b]pyran-2-yl}-1,3-thiazole-4-carboxylic acid] | 0.16
15 | CCc1cc(OC[C@@H]2[C@H]3CC[C@H](c4nc(C(=O)O)cs4)O[C@H]3C[C@@H]2O)ccc1C [9(4), 2-{(2R,4aR,5S,6S,7aS)-5-[(3-ethyl-4-methylphenoxy)methyl]-6-hydroxyoctahydrocyclopenta[b]pyran-2-yl}-1,3-thiazole-4-carboxylic acid] | 0.33
16 | O=C(O)c1csc([C@H]2CC[C@@H]3[C@@H](COc4ccc5c(c4F)CCC5)[C@@H](O)C[C@@H]3O2)n1 [9(5), 2-[(2R,4aR,5S,6S,7aS)-5-{[(4-fluoro-2,3-dihydro-1H-inden-5-yl)oxy]methyl}-6-hydroxyoctahydrocyclopenta[b]pyran-2-yl]-1,3-thiazole-4-carboxylic acid] | 0.91
17 | O=C(O)c1csc([C@H]2CC[C@@H]3[C@@H](COc4ccc5c(c4)CCCC5)[C@@H](O)C[C@@H]3O2)n1 [9(12), 2-{(2R,4aR,5S,6S,7aS)-6-hydroxy-5-[(5,6,7,8-tetrahydro-2-naphthalenyloxy)methyl]octahydrocyclopenta[b]pyran-2-yl}-1,3-thiazole-4-carboxylic acid] | 6.4
18 | CCc1ccc(OC[C@@H]2[C@H]3CC[C@H](c4nc(C(=O)O)cs4)O[C@H]3C[C@@H]2O)cc1CC [9(23), 2-{(2R,4aR,5S,6S,7aS)-5-[(3,4-diethylphenoxy)methyl]-6-hydroxyoctahydrocyclopenta[b]pyran-2-yl}-1,3-thiazole-4-carboxylic acid] | 1.6
19 | CSc1cc(OC[C@@H]2[C@H]3CC[C@H](c4nc(C(=O)O)cs4)O[C@H]3C[C@@H]2O)ccc1C [9(25)] | 0.074
20 | O=C(O)c1csc([C@H]2CC[C@@H]3[C@@H](COc4ccc5c(c4)CCCCC5)[C@@H](O)C[C@@H]3O2)n1 [9(33)] | 1.6
21 | CCc1ccc(OC[C@@H]2[C@H]3CC[C@H](c4nc(C(=O)O)cs4)O[C@H]3C[C@@H]2O)cc1C1CC1 [9(35), 2-{(2R,4aR,5S,6S,7aS)-5-[(3-cyclopropyl-4-ethylphenoxy)methyl]-6-hydroxyoctahydrocyclopenta[b]pyran-2-yl}-1,3-thiazole-4-carboxylic acid] | 2.4
22 | CCc1ccc(OC[C@@H]2[C@H]3CC[C@H](c4nc(C(=O)O)cs4)O[C@H]3C[C@@H]2O)cc1C1CCC1 [9(36), 2-{(2R,4aR,5S,6S,7aS)-5-[(3-cyclobutyl-4-ethylphenoxy)methyl]-6-hydroxyoctahydrocyclopenta[b]pyran-2-yl}-1,3-thiazole-4-carboxylic acid] | 3.5
